Legend:
A549 cancer cells = assay: Senescence induction (SA-β-Gal activity, morphology) of bleomycin-treated cells; type: cell-based; settings: 50 ug/ml for 72 hours; stained 7 days post-treatment
Protocol: (§1) FIG. 1: Senescence-associated beta-galactosidase (SA-β-Gal) activity of bleomycin-treated cells. A549 cancer cells (panel A) and primary human WI-38 fibroblasts (panel B) were treated for 72 hours with 50 ug/ml or 15 ug/ml of bleomycin, respectively. Cells were fixed and stained 7 days post-bleomycin treatment. Non-treated cultures, confluent at the time of staining, were used as controls.

[1] = tested on: primary human WI-38 fibroblasts; assay: as above; type: cell-based; settings: 15 ug/ml for 72 hours; stained 7 days post-treatment
Protocol: as §1

In the case of bleomycin, the cellular morphology (A549 cancer cells) is reported as “Enlarged cellular morphology” and the cellular morphology [1] is reported as “Enlarged cellular morphology”.
